# System: cucumber anthracnose (黄瓜炭疽病)
# Test: In vivo protective activity against cucumber anthracnose (potted plants, inoculation 24 h after spraying)
structure (smiles),measurement,setting,value
O=C(NCCc1ccc(F)cc1)c1ccc(-c2cccs2)nc1CCl [24.3],control effect,6.5 mg/L,98%
same,control effect,25 mg/L,100%
same,control effect,100 mg/L,> 98%
same,control effect,400 mg/L,100%

# From patent publication CN105777727A, “2-噻吩吡啶类化合物及其用途” (Shenyang Sinochem Agrochemicals R&D Co Ltd, priority 2014, dated 2016)
